{"source": "paper PMC8426238", "about": "“Synthesis and preclinical evaluation of [^11C]MTP38 as a novel PET ligand for phosphodiesterase 7 in the brain” (European Journal of Nuclear Medicine and Molecular Imaging, 2021)", "key": {"Opiate δ1 (OP1, DOP)": {"molecular_target": "T1, Opiate δ1 (OP1, DOP) (Homo sapiens, UniProt P41143)", "T1 construct": "purchased Eurofins Panlabs Discovery Services (Taiwan)", "T1 sequence (P41143 whole entry)": "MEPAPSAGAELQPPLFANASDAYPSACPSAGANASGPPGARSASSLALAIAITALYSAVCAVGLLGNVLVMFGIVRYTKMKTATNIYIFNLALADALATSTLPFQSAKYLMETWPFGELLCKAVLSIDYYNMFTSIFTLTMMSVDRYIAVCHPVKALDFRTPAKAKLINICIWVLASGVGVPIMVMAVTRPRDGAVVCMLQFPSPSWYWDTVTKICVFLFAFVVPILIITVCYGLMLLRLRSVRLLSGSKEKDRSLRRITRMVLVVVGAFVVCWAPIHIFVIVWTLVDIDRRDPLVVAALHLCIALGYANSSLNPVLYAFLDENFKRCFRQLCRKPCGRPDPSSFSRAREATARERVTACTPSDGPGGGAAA", "assay": "off-target screen panel", "assay_type": "binding", "settings": "Human recombinant, [^3H]Naltrindole"}, "[1]": {"test_system": "Glutamate, NMDA, Phencyclidine", "assay": "off-target screen panel", "assay_type": "binding", "settings": "Rat cerebral cortex, [^3H]TCP"}, "[2]": {"molecular_target": "T2, Epidermal Growth Factor (EGF) (Homo sapiens, UniProt P00533)", "T2 construct": "purchased Eurofins Panlabs Discovery Services (Taiwan)", "T2 sequence (P00533 25-1210)": "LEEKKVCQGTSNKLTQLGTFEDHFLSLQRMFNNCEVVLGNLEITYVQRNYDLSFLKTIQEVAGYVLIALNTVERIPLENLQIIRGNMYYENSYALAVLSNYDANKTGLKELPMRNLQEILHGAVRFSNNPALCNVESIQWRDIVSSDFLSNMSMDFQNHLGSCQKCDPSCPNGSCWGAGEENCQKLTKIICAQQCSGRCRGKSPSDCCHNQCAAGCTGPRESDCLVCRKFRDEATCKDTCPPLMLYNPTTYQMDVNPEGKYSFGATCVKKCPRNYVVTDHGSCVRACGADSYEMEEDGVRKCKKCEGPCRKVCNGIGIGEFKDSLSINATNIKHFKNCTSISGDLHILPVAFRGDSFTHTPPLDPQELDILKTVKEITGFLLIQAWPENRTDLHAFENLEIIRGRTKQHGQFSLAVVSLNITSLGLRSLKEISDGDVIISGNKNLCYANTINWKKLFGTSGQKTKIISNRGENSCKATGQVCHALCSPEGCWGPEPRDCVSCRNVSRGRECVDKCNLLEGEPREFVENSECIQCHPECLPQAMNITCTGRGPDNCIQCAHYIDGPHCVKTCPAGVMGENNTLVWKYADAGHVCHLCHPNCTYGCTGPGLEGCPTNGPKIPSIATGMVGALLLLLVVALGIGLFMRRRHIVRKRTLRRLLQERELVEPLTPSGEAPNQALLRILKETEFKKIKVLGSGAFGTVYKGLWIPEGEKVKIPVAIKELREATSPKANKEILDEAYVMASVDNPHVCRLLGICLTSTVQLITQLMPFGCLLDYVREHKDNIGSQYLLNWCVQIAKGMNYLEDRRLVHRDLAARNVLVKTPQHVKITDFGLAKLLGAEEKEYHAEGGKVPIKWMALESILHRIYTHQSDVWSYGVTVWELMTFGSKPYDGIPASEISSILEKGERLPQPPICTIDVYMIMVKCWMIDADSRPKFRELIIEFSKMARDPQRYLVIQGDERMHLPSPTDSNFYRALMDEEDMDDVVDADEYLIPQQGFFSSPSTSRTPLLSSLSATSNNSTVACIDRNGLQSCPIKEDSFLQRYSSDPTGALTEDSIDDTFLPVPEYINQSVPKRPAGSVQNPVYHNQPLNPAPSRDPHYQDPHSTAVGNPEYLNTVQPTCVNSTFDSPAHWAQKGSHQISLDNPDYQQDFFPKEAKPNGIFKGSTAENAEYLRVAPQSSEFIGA", "assay": "off-target screen panel", "assay_type": "binding", "settings": "Human A431 cells, [^125I]EGF"}, "Histamine H2": {"molecular_target": "T3, Histamine H2 (Homo sapiens, UniProt P25021)", "T3 construct": "purchased Eurofins Panlabs Discovery Services (Taiwan)", "T3 sequence (P25021 whole entry)": "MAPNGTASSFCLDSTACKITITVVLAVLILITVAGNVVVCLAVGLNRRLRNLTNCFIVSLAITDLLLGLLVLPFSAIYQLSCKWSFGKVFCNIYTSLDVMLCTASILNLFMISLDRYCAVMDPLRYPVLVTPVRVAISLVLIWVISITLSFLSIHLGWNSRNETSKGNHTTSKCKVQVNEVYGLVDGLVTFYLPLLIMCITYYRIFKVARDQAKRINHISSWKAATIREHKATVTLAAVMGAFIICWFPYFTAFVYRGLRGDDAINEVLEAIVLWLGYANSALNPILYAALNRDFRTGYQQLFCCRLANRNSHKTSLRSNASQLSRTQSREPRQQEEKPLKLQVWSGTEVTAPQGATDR", "assay": "off-target screen panel", "assay_type": "binding", "settings": "Human recombinant, [^125I]Aminopotentidine"}, "Imidazoline I2, Central": {"test_system": "Imidazoline I2, Central", "assay": "off-target screen panel", "assay_type": "binding", "settings": "Rat cerebral cortex, [^3H]Idazoxan"}, "PDE7": {"test_system": "PDE7", "assay": "PET imaging in rats with [^11C]MTP38", "assay_type": "in vivo, Wistar rats", "settings": "unlabeled MTP38 0.5 mg/kg intravenously 2 min before radioligand", "experimental": "Each rat was scanned multiple times with a shortest interval of 1 month. Rats were anesthetized with isoflurane (3% for induction and 2% for maintenance) throughout the experiment. The tail vein was cannulated for radioligand injection. Body temperature was maintained at around 37 °C using a heating pad. The head of the rat was fixed at the center of the field of view of an animal PET scanner (microPET Focus220, Siemens Medical Solutions, Malvern, USA). A 90-min list-mode data acquisition was started simultaneously with intravenous administration of [^11C]MTP38. The list-mode data were sorted into 3D sinograms, which were then Fourier-rebinned into 2D sinograms (frames: 10 s × 6, 30 s × 8, 1 min × 5, 2 min × 10, and 5 min × 12). The sinograms were reconstructed with a filtered back-projection algorithm using a Hanning filter with a cut-off at the Nyquist frequency (0.5 mm^−1).\nAlong with baseline scans, we conducted blockade PET experiments according to the following pretreatment protocols: (1) unlabeled MTP38 (0.5 mg/kg) was administered intravenously at 2 min before radioligand injection, and (2) MTP-X (100 mg/kg) was administered orally at 1 h before radioligand injection.\nPET images were co-registered manually onto the magnetic resonance (MR) template image. Details of co-registration were described elsewhere. Regions of interest (ROIs) were placed on the striatum as a target region and on the cerebellum (gray matter) as a reference region according to the expression of PDE7B mRNA in the rat brain [6], and time-activity curves (TACs) were generated for each ROI. Radioactivity in the brain was normalized with injected radioactivity and body weight, and expressed as standardized uptake value (SUV). Then the SUV ratio between the striatum and cerebellum was obtained to estimate the radioligand binding in the target region in baseline and blockade experiments."}, "Adrenergic α2A": {"molecular_target": "T4, Adrenergic α2A (Homo sapiens, UniProt P08913)", "T4 construct": "purchased Eurofins Panlabs Discovery Services (Taiwan)", "T4 sequence (P08913 whole entry)": "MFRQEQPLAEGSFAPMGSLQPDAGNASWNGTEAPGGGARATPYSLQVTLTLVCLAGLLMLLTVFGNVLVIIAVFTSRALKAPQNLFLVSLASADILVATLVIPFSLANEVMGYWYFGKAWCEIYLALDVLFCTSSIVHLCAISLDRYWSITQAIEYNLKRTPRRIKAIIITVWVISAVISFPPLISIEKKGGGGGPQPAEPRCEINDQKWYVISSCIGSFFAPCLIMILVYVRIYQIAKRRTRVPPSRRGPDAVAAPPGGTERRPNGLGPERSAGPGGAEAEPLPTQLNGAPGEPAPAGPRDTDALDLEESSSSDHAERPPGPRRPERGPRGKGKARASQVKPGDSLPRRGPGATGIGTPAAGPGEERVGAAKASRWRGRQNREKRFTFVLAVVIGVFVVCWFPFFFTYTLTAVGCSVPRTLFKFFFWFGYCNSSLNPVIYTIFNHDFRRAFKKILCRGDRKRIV", "assay": "off-target screen panel", "assay_type": "binding", "settings": "Human recombinant, [^3H]Rauwolscine"}, "Glucocorticoid": {"molecular_target": "T5, Glucocorticoid (Homo sapiens, UniProt P04150)", "T5 construct": "purchased Eurofins Panlabs Discovery Services (Taiwan)", "T5 sequence (P04150 whole entry)": "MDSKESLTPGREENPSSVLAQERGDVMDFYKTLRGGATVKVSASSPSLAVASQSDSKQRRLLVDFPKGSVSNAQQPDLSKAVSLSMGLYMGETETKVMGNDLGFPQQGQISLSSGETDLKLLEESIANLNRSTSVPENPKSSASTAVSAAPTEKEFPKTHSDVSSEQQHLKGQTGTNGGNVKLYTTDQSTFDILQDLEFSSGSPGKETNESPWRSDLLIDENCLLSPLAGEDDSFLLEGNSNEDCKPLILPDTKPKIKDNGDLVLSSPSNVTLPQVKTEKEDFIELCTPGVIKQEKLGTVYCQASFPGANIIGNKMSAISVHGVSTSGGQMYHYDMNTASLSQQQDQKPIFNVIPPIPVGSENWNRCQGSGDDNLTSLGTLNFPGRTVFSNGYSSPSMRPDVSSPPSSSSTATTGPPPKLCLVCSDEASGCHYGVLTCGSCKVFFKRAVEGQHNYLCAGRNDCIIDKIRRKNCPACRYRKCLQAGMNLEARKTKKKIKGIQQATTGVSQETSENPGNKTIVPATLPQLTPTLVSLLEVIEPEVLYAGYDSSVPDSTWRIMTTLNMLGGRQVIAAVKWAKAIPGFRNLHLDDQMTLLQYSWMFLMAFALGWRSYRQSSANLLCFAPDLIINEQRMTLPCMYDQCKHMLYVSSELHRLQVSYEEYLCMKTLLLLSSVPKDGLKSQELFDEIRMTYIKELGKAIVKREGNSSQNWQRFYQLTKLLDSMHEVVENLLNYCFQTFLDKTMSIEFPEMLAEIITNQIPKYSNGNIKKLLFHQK", "assay": "off-target screen panel", "assay_type": "binding", "settings": "Human recombinant, [^3H]Dexamethasone"}, "Muscarinic M2": {"molecular_target": "T6, Muscarinic M2 (Homo sapiens, UniProt P08172)", "T6 construct": "purchased Eurofins Panlabs Discovery Services (Taiwan)", "T6 sequence (P08172 whole entry)": "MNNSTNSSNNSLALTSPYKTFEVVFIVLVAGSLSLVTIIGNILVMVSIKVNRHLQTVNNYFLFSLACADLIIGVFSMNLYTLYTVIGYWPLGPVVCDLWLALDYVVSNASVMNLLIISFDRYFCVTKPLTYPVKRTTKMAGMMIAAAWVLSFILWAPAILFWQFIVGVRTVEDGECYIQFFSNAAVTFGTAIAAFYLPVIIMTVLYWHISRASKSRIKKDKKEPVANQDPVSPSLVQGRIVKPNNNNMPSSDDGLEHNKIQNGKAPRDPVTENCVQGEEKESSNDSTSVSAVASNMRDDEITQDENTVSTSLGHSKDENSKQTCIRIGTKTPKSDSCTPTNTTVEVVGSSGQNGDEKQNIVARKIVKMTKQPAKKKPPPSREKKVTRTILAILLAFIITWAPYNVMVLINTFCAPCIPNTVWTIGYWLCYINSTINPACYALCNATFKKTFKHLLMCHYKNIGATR", "assay": "off-target screen panel", "assay_type": "binding", "settings": "Human recombinant, [^3H]N-Methylscopolamine"}, "[3]": {"molecular_target": "T7, Serotonin (5-Hydroxytryptamine) 5-HT3 (Homo sapiens, UniProt P46098)", "T7 construct": "purchased Eurofins Panlabs Discovery Services (Taiwan)", "T7 sequence (P46098 24-478)": "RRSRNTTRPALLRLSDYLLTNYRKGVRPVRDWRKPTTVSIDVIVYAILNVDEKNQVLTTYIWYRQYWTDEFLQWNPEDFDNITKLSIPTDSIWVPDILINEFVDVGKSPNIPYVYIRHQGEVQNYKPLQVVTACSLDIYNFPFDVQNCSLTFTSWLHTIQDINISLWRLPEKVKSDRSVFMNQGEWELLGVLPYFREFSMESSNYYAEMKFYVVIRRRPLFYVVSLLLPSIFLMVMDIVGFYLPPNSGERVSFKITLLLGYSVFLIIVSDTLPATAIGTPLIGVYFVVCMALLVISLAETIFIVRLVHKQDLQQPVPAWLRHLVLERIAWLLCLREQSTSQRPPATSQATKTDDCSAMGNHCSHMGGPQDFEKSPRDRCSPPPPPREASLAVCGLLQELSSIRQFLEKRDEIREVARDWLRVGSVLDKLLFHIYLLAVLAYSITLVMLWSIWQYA", "assay": "off-target screen panel", "assay_type": "binding", "settings": "Human recombinant, [^3H]GR-65630"}, "Sigma σ1": {"molecular_target": "T8, Sigma σ1 (Homo sapiens, UniProt Q99720)", "T8 construct": "purchased Eurofins Panlabs Discovery Services (Taiwan)", "T8 sequence (Q99720 whole entry)": "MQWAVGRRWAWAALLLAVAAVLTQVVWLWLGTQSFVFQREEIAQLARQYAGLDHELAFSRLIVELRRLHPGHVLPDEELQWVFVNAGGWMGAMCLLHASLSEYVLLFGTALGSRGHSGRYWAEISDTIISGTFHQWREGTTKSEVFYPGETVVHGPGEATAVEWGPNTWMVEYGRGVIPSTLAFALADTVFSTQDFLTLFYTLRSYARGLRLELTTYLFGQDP", "assay": "off-target screen panel", "assay_type": "binding", "settings": "Human Jurkat cells, [^3H]Haloperidol"}}, "data": [{"molecule": "C[C@@H]1CC[C@H](C)N(c2nnc3c(N)ncc(C#N)n23)C1", "note": "(relative stereo) [MTP38, 8-amino-3-(2S*,5R*-dimethyl-1-piperidyl)-[1,2,4]triazolo[4,3-a]pyrazine-5-carbonitrile]", "values": [{"measurement": "inhibition at 1 µM", "setting": "Opiate δ1 (OP1, DOP)", "result": -4, "unit": "%"}, {"measurement": "Inhibition (%) at 1 μM", "setting": "[1]", "result": -5, "unit": "%"}, {"measurement": "inhibition at 1 µM", "setting": "[2]", "result": 1, "unit": "%"}, {"measurement": "inhibition at 1 µM", "setting": "Histamine H2", "result": -9, "unit": "%"}, {"measurement": "Inhibition (%) at 1 μM", "setting": "Imidazoline I2, Central", "result": -8, "unit": "%"}, {"measurement": "striatum-to-cerebellum ratio of SUV of [^11C]MTP38 after pretreatment", "setting": "PDE7", "result": "around 1.1"}, {"measurement": "inhibition at 1 µM", "setting": "Adrenergic α2A", "result": 4, "unit": "%"}, {"measurement": "inhibition at 1 µM", "setting": "Glucocorticoid", "result": 0, "unit": "%"}, {"measurement": "inhibition at 1 µM", "setting": "Muscarinic M2", "result": -9, "unit": "%"}, {"measurement": "inhibition at 1 µM", "setting": "[3]", "result": -11, "unit": "%"}, {"measurement": "inhibition at 1 µM", "setting": "Sigma σ1", "result": 6, "unit": "%"}]}]}
